Structures can show the parent of a compound that is named as a salt. Where two headings read alike, the source gives them in different places.
Assays:
[1] = Aqueous solubility of dronedarone hydrochloride; assay type: physicochemical
Source text: As indicated above, the above β-cyclodextrin derivatives, when they are used in combination with an appropriate buffer, for example a phosphate buffer, in the compositions of the invention, make it possible in particular to increase the aqueous solubility of dronedarone or of its pharmaceutically acceptable salts.

[2] = tested on: male rats; test: Local tolerance in animals (intravenous injection in caudal vein); assay type: in vivo; conditions: several days
Protocol: Tests were carried out for the purpose of evaluating the local tolerance of various aqueous compositions comprising dronedarone hydrochloride or only the corresponding vehicle as placebo.
To this end, a dose of one the aqueous compositions hereinbelow was administered daily for 5 days via the intravenous route to batches of 5 male rats. The injection was made in the caudal vein, preferably in the distal region, then in the median region and finally in the proximal region. The animals were then sacrificed on the 8th day and the tails were removed for the purpose of possible microscopic examination.

[3] = Surface tension in aqueous solution (surfactant properties); assay type: physicochemical; conditions: with or without phosphate buffer
Protocol: This surfactant nature moreover proves to be as powerful in the presence as in the absence of a phosphate buffer and can be held as being partially responsible for a self-aggregation of dronedarone molecules in aqueous solution. In fact, this supramolecular organization in solution is due to the formation of dimers positioned head to tail and stacked in superimposed layers. These dimers, when they are administered by injection, lead to rupturing of the cell membrane and, consequently, to the appearance of inflammation at the injection site. Generally, these surfactant properties of dronedarone can be regarded as responsible for poor tolerance of the composition in which they are present.

Compound | solubility ([1]; aqueous medium, aqueous buffer, ambient temperature, pH=4.85, read-out: solubility in an aqueous medium) | solubility ([1]; mono-sodium phosphate buffer (NaH2PO4), aqueous buffer, ambient temperature, pH range from 1.5 to 5, read-out: solubility in the presence of a mono-sodium phosphate buffer (NaH2PO4)) | solubility in an aqueous medium ([1]; pH range from 1.5 to 5) | solubility in an aqueous medium ([1]; pH values of greater than 5.5) | solubility in the presence of a mono-sodium phosphate buffer (NaH2PO4) ([1]; pH=5.5) | solubility ([1]; phosphate buffer with hydroxypropyl-β-cyclodextrin, aqueous with cosolvent or surfactant or cyclodextrin, 100 mmolar phosphate buffer and 5% of hydroxypropyl-β-cyclodextrin, read-out: solubility) | tolerance at the injection site ([2]; aqueous formulation 1.065 mg/ml dronedarone hydrochloride with hydroxypropyl-β-cyclodextrin) | local tolerance ([2]; aqueous formulation 1.065 mg/ml dronedarone hydrochloride with phosphate buffer) | effect on surface tension [3]
CCCCc1oc2ccc(NS(C)(=O)=O)cc2c1C(=O)c1ccc(OCCCN(CCCC)CCCC)cc1 [dronedarone hydrochloride, 2-butyl-3-(4-[[3-(dibutylamino)propoxy]]benzoyl)-5-(methanesulphonamido)benzofuran] | 500 µg/mL | 2000 to 2250 µg/mL | virtually constant | virtually negligible | virtually zero | ~6500 µg/mL | marked intolerance | poor local tolerance | 
CCCCc1oc2ccc(NS(C)(=O)=O)cc2c1C(=O)c1ccc(OCCCN(CCCC)CCCC)cc1 [dronedarone, 2-butyl-3-(4-[[3-(dibutylamino)propoxy]]benzoyl)-5-(methanesulphonamido)benzofuran] |  |  |  |  |  |  |  |  | marked decrease
